Measurements reported in paper PMC9271048, “Probing strigolactone perception mechanisms with rationally designed small-molecule agonists stimulating germination of root parasitic weeds” (Nature Communications, 2022).
Like-named read-outs stand apart in the source and are kept apart here.

Legend:
[1] = test system: ShHTLs (10 HTL proteins in S. hermonthica); assay: YLG-based competition assay on HTL proteins of S. hermonthica; type: biochemical, Striga hermonthica; settings: Supplementary Fig. 27
From the text: In P. aegyptiaca, 5 KAI2s have been proposed as the SL receptors for the regulation of seed germination. […] The high sequence similarity may explain the consistency of these compounds in inducing germination in both S. hermonthica and P. aegyptiaca.
(§1) The excitation and emission wavelengths of YLG are 480 and 520 nm, respectively. We used a fluorescence spectrophotometer (CARY Eclipse) to detect the fluorescence intensity change of YLG during the enzymatic hydrolysis assay process. All the testing compounds and YLG were dissolved in DMSO and prepared as stock solutions just before use. […] The changes of fluorescence at 520 nm of each well were recorded every 1 min for 30 min. Using the reaction mixture without adding enzyme and tested compounds as the background control. After subtracting the background hydrolysis, a linear fluorescence increase in 8 min was used for further inspection. The IC50 values were determined via fitting relative inhibition percentages with the varying concentrations of compounds in Microsoft Excel.
Supplementary Fig. 27. Binding of compounds 4a, (R)- and (S)-4a, and 4g-i to the HTL proteins in S. hermonthica and KAI2 protein homologs in P. aegyptiaca. In the competitive inhibitory activity assay, YLG (3 µM) was used as the fluorogenic substrate. Error bar indicates SD (n = 3 biologically independent experiments).
(1 picture or pasted object on this page, not shown here)

[2] = molecular target: T1, ShHTL7 (Striga hermonthica, UniProt A0A0M3PNA2); assay: biochemical; type: binding
Description: We used a sensitive, high-throughput Surface plasmon resonance (SPR) method to examine the binding affinities of the 51 candidates to the recombinant ShHTL7 protein, which was immobilized on the CM5 sensor chip. rac-GR24 was used as a positive control.
The interactions of small molecules with recombinant ShHTL7 were evaluated using the Biacore T200 system (GE Healthcare, USA) at 25 °C[47]. The purified ShHTL7 protein was immobilized on a CM5 sensor chip using the standard amine coupling procedure. […] PBS-P (10 mM phosphate buffer, 2.7 mM KCl, 137 mM NaCl, 0.05% Surfactant P20) containing 0.5% DMSO was used as the running buffer. For the screening experiments, candidates with different structures at 50 μM in the running buffer were injected individually at a flow rate of 30 μL min^−1. For binding affinity studies, compounds with different concentrations in running buffer were used. During the experiments, both the contact and dissociation times were set as 1 min. Data analysis was performed using the Biacore Evaluation Software (T200 Version 2.0). The affinity values (KD) were obtained by the kinetics analysis or the steady-state affinity method.

[3] = molecular target: T1, ShHTL7; assay: Competitive inhibition of ShHTL7 with Yoshimulactone Green (YLG) as substrate; type: biochemical
Description: Based on the structural feature of the lead compound 2h, we selected three regions to perform further modification (Supplementary Fig. 6), to try to further improve bioactivity. Insertion of a carbonyl group between the bicyclo[2.2.1]hept-5-en-2-yl group and the piperazine ring was detrimental to binding affinity (Supplementary Fig. 6, region A). Removal of an oxygen atom in region B was found unfavorable to binding affinity as well. Therefore, we focused on modifying the benzene ring (region C) for 2h. A series of compounds with different groups at region C was synthesized (Supplementary Scheme 1). […] As SPR just measures the binding ability, another independent assay by using Yoshimulactone Green (YLG) as the fluorescent substrate was performed to determine the half-maximal inhibitory concentration (IC50) of these compounds against ShHTL7[22].
as §1

[4] = test system: P. aegyptiaca seeds; assay: P. aegyptiaca seed germination assay; type: in vivo, Phelipanche aegyptiaca; set-up: P. aegyptiaca germination EC50 values, source data average: unit not given here; P. aegyptiaca seed germination activity, source data average: unit of the concentration uncertain; settings: for P. aegyptiaca seed germination activity, source data average: Supplementary Fig. 9b
Description: P. aegyptiaca seeds were harvested from Xinjiang province, China in 2017. The seeds were surface sterilized using 1% NaClO solution for 2 min and then washed with distilled water six times. For seed germination assay, about 20 pieces of glass fiber-filter paper discs (15 mm diameter, Whatman GF/B) were placed separately on two layers of filter papers (9 cm diameter, Whatman) in a Petri dish. Five milliliters of distilled water was added to each Petri dish to wet the papers. Approximately 40–90 sterilized seeds were spread onto each glass fiber-filter paper disc. After the seeds were conditioned in the dark at 25 °C for 4 days[48], glass fiber-filter paper discs were blotted dry on filter papers (9 cm) and transferred to the wells of 24-well cell culture plates. The testing compounds were dissolved in acetone and diluted with H2O (VH2O/Vacetone = 999/1) just before use[49]. rac-GR24 and 1‰ acetone solution were used as positive and negative controls, respectively. One hundred microliters of the test solution was added to each well of the plates, and all treatments were performed in three biological repeats. The plates were sealed and incubated in the dark at 25 °C for a week. The experiments were performed at least three times. The germinated seeds were observed by using an electronic magnifier at ×20 magnification.

[5] = ShHTL2, YLG competition, read-out: IC50, replicate 1
[6] = ShHTL2, YLG competition, read-out: IC50, replicate 2
[7] = ShHTL2, YLG competition, read-out: IC50, replicate 3
[8] = ShHTL2, average of 3 replicates, read-out: IC50, average
[9] = ShHTL3, YLG competition, read-out: IC50, replicate 1
[10] = ShHTL3, YLG competition, read-out: IC50, replicate 2
[11] = ShHTL3, YLG competition, read-out: IC50, replicate 3
[12] = ShHTL3, average of 3 replicates, read-out: IC50, average
[13] = ShHTL4, YLG competition, read-out: IC50, replicate 1
[14] = ShHTL4, YLG competition, read-out: IC50, replicate 2
[15] = ShHTL4, YLG competition, read-out: IC50, replicate 3
[16] = ShHTL4, average of 3 replicates, read-out: IC50, average
[17] = ShHTL5, YLG competition, read-out: IC50, replicate 1
[18] = ShHTL5, YLG competition, read-out: IC50, replicate 2
[19] = ShHTL5, YLG competition, read-out: IC50, replicate 3
[20] = ShHTL5, average of 3 replicates, read-out: IC50, average
[21] = ShHTL6, YLG competition, read-out: IC50, replicate 1
[22] = ShHTL6, YLG competition, read-out: IC50, replicate 2
[23] = ShHTL6, YLG competition, read-out: IC50, replicate 3
[24] = ShHTL6, average of 3 replicates, read-out: IC50, average
[25] = ShHTL8, YLG competition, read-out: IC50, replicate 1
[26] = ShHTL8, YLG competition, read-out: IC50, replicate 2
[27] = ShHTL8, YLG competition, read-out: IC50, replicate 3
[28] = ShHTL8, average of 3 replicates, read-out: IC50, average
[29] = ShHTL9, YLG competition, read-out: IC50, replicate 1
[30] = ShHTL9, YLG competition, read-out: IC50, replicate 2
[31] = ShHTL9, YLG competition, read-out: IC50, replicate 3
[32] = ShHTL9, average of 3 replicates, read-out: IC50, average
[33] = ShHTL10, YLG competition, read-out: IC50, replicate 1
[34] = ShHTL10, YLG competition, read-out: IC50, replicate 2
[35] = ShHTL10, YLG competition, read-out: IC50, replicate 3
[36] = ShHTL10, average of 3 replicates, read-out: IC50, average
[37] = ShHTL11, YLG competition, read-out: IC50, replicate 1
[38] = ShHTL11, YLG competition, read-out: IC50, replicate 2
[39] = ShHTL11, YLG competition, read-out: IC50, replicate 3
[40] = ShHTL11, average of 3 replicates, read-out: IC50, average
[41] = ShHTL7, YLG competition, Supplementary Fig. 27, read-out: IC50, replicate 1
[42] = ShHTL7, YLG competition, Supplementary Fig. 27, read-out: IC50, replicate 2
[43] = ShHTL7, YLG competition, Supplementary Fig. 27, read-out: IC50, replicate 3

T1 sequence (A0A0M3PNA2 entry or part of it): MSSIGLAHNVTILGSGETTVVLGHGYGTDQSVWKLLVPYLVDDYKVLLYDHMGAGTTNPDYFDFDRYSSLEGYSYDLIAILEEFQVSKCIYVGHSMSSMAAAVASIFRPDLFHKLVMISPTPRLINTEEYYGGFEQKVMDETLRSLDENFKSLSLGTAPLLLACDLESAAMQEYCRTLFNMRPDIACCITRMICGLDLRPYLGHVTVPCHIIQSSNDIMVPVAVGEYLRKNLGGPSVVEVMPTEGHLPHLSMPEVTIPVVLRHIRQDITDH

Compound `CC1=C[C@H](O/C=C2/C(=O)O[C@@H]3c4ccccc4C[C@H]23)OC1=O` (racemic) [rac-GR24, reference compound] has an IC50 [1, 5] of 26.2 µM, an IC50 [1, 6] of 25.2 µM and an IC50 [1, 7] of 25.5 µM. It also gave an IC50 [1, 8] of 25.7 µM, an IC50 [1, 9] of 9.4 µM and an IC50 [1, 10] of 7.11 µM. For the same compound, the IC50 [1, 11] was 8.7 µM, the IC50 [1, 12] was 8.4 µM and the IC50 [1, 13] was 0.239 µM. The IC50 [1, 14] was 0.239 µM, the IC50 [1, 15] was 0.28 µM and the IC50 [1, 16] was 0.253 µM. For the same compound, the IC50 [1, 17] was 5.89 µM, the IC50 [1, 18] was 6.85 µM and the IC50 [1, 19] was 6.74 µM. The IC50 [1, 20] was 6.49 µM, the IC50 [1, 21] was 2.28 µM and the IC50 [1, 22] was 1.87 µM. For the same compound, the IC50 [1, 23] was 2.23 µM, the IC50 [1, 24] was 2.13 µM and the IC50 [1, 25] was 6.15 µM. The IC50 [1, 26] was 6.78 µM, the IC50 [1, 27] was 4.51 µM and the IC50 [1, 28] was 5.81 µM. For the same compound, the IC50 [1, 29] was 4.91 µM, the IC50 [1, 30] was 4.06 µM and the IC50 [1, 31] was 5.17 µM. For the same compound, the IC50 [1, 32] was 4.71 µM, the IC50 [1, 33] was 4.93 µM and the IC50 [1, 34] was 6.56 µM. For the same compound, the IC50 [1, 35] was 5.51 µM, the IC50 [1, 36] was 5.67 µM and the IC50 [1, 37] was 3.27 µM. It also gave an IC50 [1, 38] of 3.14 µM, an IC50 [1, 39] of 3.16 µM and an IC50 [1, 40] of 3.19 µM. The Kd ([2]; Supplementary Table 7, binding affinities between ShHTL7 and agonists by SPR, read-out: KD/μM) was 0.93 ± 0.17 µM, the Kd ([2]; recombinant ShHTL7 immobilized on CM5 chip, 25 °C, read-out: KD (SPR)) was ~0.93 µM and the IC50 [3, 41] was 0.633 µM. The IC50 [3, 42] was 0.842 µM, the IC50 [3, 43] was 0.614 µM and the IC50 ([3]; ShHTL7, average of 3 replicates, Supplementary Fig. 27, read-out: IC50, average) was 0.696 µM. The IC50 ([3]; YLG used as the substrate, means ± SD, n = 3, read-out: IC50 (Supplementary Table 1)) was 0.73 ± 0.11 µM, the “germination of P. aegyptiaca seeds, source data average” value ([4]; 10 μM, Fig. 1d source data, average of 3) was 96.5229% and the “P. aegyptiaca seed germination activity, source data average” value (from here on “P. aegyptiaca seed germination activity”) ([4]; 0.1 (unit uncertain) as printed) was 90.7731%. For the same compound, the “P. aegyptiaca seed germination activity” value ([4]; 1 (unit uncertain) as printed) was 95.3227%, the “P. aegyptiaca seed germination activity” value ([4]; 10 (unit uncertain) as printed) was 96.5229% and the “P. aegyptiaca germination(%)” value ([4]; Supplementary Table 1, compounds tested at 10 μM, means ± SD, n = 3) was 96.4%. For the same compound, the EC50 ([4]; in vivo, read-out: EC50, P. aegyptiaca seed germination) was 0.0485 nM and the “P. aegyptiaca germination EC50 values, source data average” value ([4]; source data of Fig. 2c and Supplementary Fig. 8b, average of 3) was 10.3597.
`CC1=CC(OC(=O)N2CCN(C(=O)COc3ccc(Br)cc3C)CC2)OC1=O` (stereo not shown) [4a] gave an IC50 [1, 5] of 56.1 µM, an IC50 [1, 6] of 49 µM and an IC50 [1, 7] of 62.1 µM. It also gave an IC50 [1, 8] of 55.8 µM, an IC50 [1, 9] of 43.3 µM and an IC50 [1, 10] of 41.4 µM. The IC50 [1, 11] was 44.5 µM, the IC50 [1, 12] was 43 µM and the IC50 [1, 13] was 6.23 µM. It also gave an IC50 [1, 14] of 4.7 µM, an IC50 [1, 15] of 3.91 µM and an IC50 [1, 16] of 4.95 µM. For the same compound, the IC50 [1, 17] was 18.6 µM, the IC50 [1, 18] was 15.2 µM and the IC50 [1, 19] was 13.3 µM. For the same compound, the IC50 [1, 20] was 15.7 µM, the IC50 [1, 21] was 28.4 µM and the IC50 [1, 22] was 23.6 µM. For the same compound, the IC50 [1, 23] was 18.4 µM, the IC50 [1, 24] was 23.5 µM and the IC50 [1, 25] was 14.7 µM. The IC50 [1, 26] was 15.3 µM, the IC50 [1, 27] was 21.5 µM and the IC50 [1, 28] was 17.2 µM. The IC50 [1, 29] was 20.4 µM, the IC50 [1, 30] was 21.8 µM and the IC50 [1, 31] was 26.6 µM. It also gave an IC50 [1, 32] of 22.9 µM, an IC50 [1, 33] of 31.1 µM and an IC50 [1, 34] of 39.7 µM. It also gave an IC50 [1, 35] of 31 µM, an IC50 [1, 36] of 33.9 µM and an IC50 [1, 37] of 9.32 µM. For the same compound, the IC50 [1, 38] was 9.73 µM, the IC50 [1, 39] was 13.1 µM and the IC50 [1, 40] was 10.7 µM. The Kd [2] was 2.07 ± 0.51 µM, the IC50 [3, 41] was 0.953 µM and the IC50 [3, 42] was 1.35 µM. The IC50 [3, 43] was 1.32 µM, the IC50 ([3]; YLG as substrate, text and Fig. 2, read-out: IC50, competitive ShHTL7 inhibition (YLG assay)) was 1.21 ± 0.22 µM and the IC50 ([3]; wild-type ShHTL7, average of 3, source data of Fig. 2a,b, Supplementary Figs. 8a, 9a, 20b, read-out: IC50, competitive ShHTL7 inhibition (YLG), source data average) was 1.21 µM. It also gave an EC50 ([4]; Phelipanche aegyptiaca, read-out: EC50, P. aegyptiaca seed germination) of ~0.0862 nM and an EC50 ([4]; Phelipanche aegyptiaca, source data of Fig. 2c and Supplementary Fig. 8b, average of 3, read-out: P. aegyptiaca germination EC50 values, source data average (converted)) of 0.0628 nM.
